Converted amounts (≈) assume the structure as drawn. Read-outs that look alike come from different tables or passages of the source.

This series in a line: Solubility of Compound (V) in water and organic solvents. The following applies: for solubility: read-out: Concentration in pure solvents (solubility). The format is physicochemical. The method, then:
Example 1 Solubility of Compound (V) in Organic Solvents
The solubility of Compound (V) in water and in a set of organic solvents was determined.

As for `CCOC(=O)c1cn([C@H]2COCC[C@@H]2C#N)nc1N` (racemic) [Compound (V), ethyl 3-amino-1-[(3R,4S)-4-cyanotetrahydropyran-3-yl]pyrazole-4-carboxylate and ethyl 3-amino-1-[(3S,4R)-4-cyanotetrahydropyran-3-yl]pyrazole-4-carboxylate], the Solubility in words entry (acetonitrile) is “highly soluble”. The solubility reads like this: (acetonitrile (pure solvent), organic solvent or mixture) greater than 200000 µg/mL; (ethanol (pure solvent), organic solvent or mixture, EtOH) 10000 µg/mL (≈ 37.8 mM); (isopropanol (pure solvent), organic solvent or mixture, iPrOH) less than 5000 µg/mL; (methanol (pure solvent), organic solvent or mixture, MeOH) less than 50000 µg/mL; (water (pure solvent), water) less than 5000 µg/mL.

These data come from US12281104B2, “Process for the production of ethyl 3-amino-1-[(3R,4S)-4-cyanotetrahydropyran-3-yl]pyrazole-4-carboxylate through chiral separation of a racemic mixture” (Intervet Inc., priority 2019, dated 2025).
